Reference: ChEMBL document CHEMBL1201862, “PubChem BioAssay data set” (2004)
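1) Cells in 96-well plates. 2) Compound, 48 h, 5 concentrations. 3) Linear interpolation between surrounding doses. 4) Unreached endpoint = highest concentration. GI50 = concentration required for 50% inhibition of growth.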 Active and inactive are the calls of the source. No stated cut-off is given here; in the data, active = GI50 up to about 1.1 µM and inactive = higher.

How the values were obtained:
Test in all cases: NCI anticancer screen, dose series, 48 h
KM12 = test system: KM12
A549 = test system: A549
UACC-62 = test system: UACC-62
HT-29 = test system: HT-29
HCC 2998 = test system: HCC 2998
COLO 205 = test system: COLO 205
M14 = test system: M14
NCI-H460 = test system: NCI-H460
HCT-116 = test system: HCT-116
EKVX = test system: EKVX
LOX IMVI = test system: LOX IMVI
OVCAR-4 = test system: OVCAR-4
RXF 393 = test system: RXF 393
Hs-578T = test system: Hs-578T
Malme-3M = test system: Malme-3M
OVCAR-5 = test system: OVCAR-5
T47D = test system: T47D
786-0 = test system: 786-0
PC-3 = test system: PC-3
K562 = test system: K562

| Structure (SMILES) | GI50 (KM12) | GI50 (A549) | GI50 (UACC-62) | GI50 (HT-29) | GI50 (HCC 2998) | GI50 (COLO 205) | GI50 (M14) | GI50 (NCI-H460) | GI50 (HCT-116) | GI50 (EKVX) | GI50 (LOX IMVI) | GI50 (OVCAR-4) | GI50 (RXF 393) | GI50 (Hs-578T) | GI50 (Malme-3M) | GI50 (OVCAR-5) | GI50 (T47D) | GI50 (786-0) | GI50 (PC-3) | GI50 (K562) |
| --- | --- | --- | --- | --- | --- | --- | --- | --- | --- | --- | --- | --- | --- | --- | --- | --- | --- | --- | --- | --- |
| O=c1[nH]c(=O)n(C/C=C/CO)nc1Br | > 100 µM (inactive) | > 100 µM (inactive) | > 100 µM (inactive) | > 100 µM (inactive) | > 100 µM (inactive) | > 100 µM (inactive) | > 100 µM (inactive) | > 100 µM (inactive) | > 100 µM (inactive) | > 100 µM (inactive) | > 100 µM (inactive) | > 100 µM (inactive) | > 100 µM (inactive) | > 100 µM (inactive) | > 100 µM (inactive) | > 100 µM (inactive) | > 100 µM (inactive) | > 100 µM (inactive) | > 100 µM (inactive) |  |
| CCN(CC)CC/N=c1\c2cc(OC)ccc2[nH]c2c([N+](=O)[O-])ccc(NCCN(CC)CC)c12 | 0.875 µM (active) | 1.05 µM (active) | 5.26 µM (inactive) | 0.7 µM (active) | 0.718 µM (active) | 0.875 µM (active) | 2.88 µM (inactive) | 0.386 µM (active) | 0.853 µM (active) | 1.93 µM (inactive) | 0.794 µM (active) | 1.15 µM (inactive) | 1.26 µM (inactive) | 1.46 µM (inactive) | 1.82 µM (inactive) | 1.57 µM (inactive) | > 7.38 µM (inactive) | 0.399 µM (active) | 0.706 µM (active) | 0.306 µM (active) |
| COc1c(C(=O)O)cccc1-c1cccc(C(=O)NCCN(CCNC(=O)c2cccc(-c3cccc(C(=O)O)c3OC)c2OC)CCNC(=O)c2cccc(-c3cccc(C(=O)O)c3OC)c2OC)c1OC | 18.6 µM (inactive) | 49.5 µM (inactive) | 25.8 µM (inactive) | 20.7 µM (inactive) | 31.7 µM (inactive) | 20.2 µM (inactive) |  | 25.4 µM (inactive) | 33.4 µM (inactive) | 64.6 µM (inactive) | 32.3 µM (inactive) | 60.5 µM (inactive) | 28.6 µM (inactive) | 28 µM (inactive) | 23.4 µM (inactive) | 28.6 µM (inactive) | 43 µM (inactive) | 31.6 µM (inactive) | 27.9 µM (inactive) | 24.3 µM (inactive) |
| COC(=O)C1=C(N)C2=C(N)Oc3ccccc3C2CC1=C(C#N)C#N (stereo unspecified) | 15.7 µM (inactive) | 32.6 µM (inactive) | 18.1 µM (inactive) | 26.2 µM (inactive) | 17.9 µM (inactive) | 22.5 µM (inactive) | 19.4 µM (inactive) |  | 23.5 µM (inactive) | 29.1 µM (inactive) | 18.8 µM (inactive) | 30.2 µM (inactive) | 26 µM (inactive) | 27.9 µM (inactive) | 21.6 µM (inactive) | 27.9 µM (inactive) | 25.9 µM (inactive) | 30.9 µM (inactive) | 28.1 µM (inactive) | 19.6 µM (inactive) |
| Cn1/c(=N\c2ccccc2[N+](=O)[O-])sc2ccccc21 | 1.6 µM (inactive) | > 100 µM (inactive) | 30.5 µM (inactive) | > 100 µM (inactive) | 30.3 µM (inactive) | > 100 µM (inactive) |  | 50.2 µM (inactive) | 72.8 µM (inactive) | 8.61 µM (inactive) | > 100 µM (inactive) | 16.1 µM (inactive) | 30.1 µM (inactive) | 16.5 µM (inactive) | > 100 µM (inactive) | 22 µM (inactive) | 3.95 µM (inactive) | 30.7 µM (inactive) | 66.1 µM (inactive) | > 100 µM (inactive) |
| CCOc1nnnc2[nH]cnc12 | > 100 µM (inactive) | > 100 µM (inactive) | > 100 µM (inactive) | > 100 µM (inactive) | > 100 µM (inactive) | > 100 µM (inactive) | > 100 µM (inactive) | > 100 µM (inactive) | > 100 µM (inactive) | > 100 µM (inactive) | > 100 µM (inactive) | > 100 µM (inactive) | > 100 µM (inactive) | > 100 µM (inactive) | > 100 µM (inactive) | > 100 µM (inactive) | > 100 µM (inactive) | > 100 µM (inactive) | > 100 µM (inactive) |  |
| CC(=O)O[C@@H](c1nccn1Cc1ccccc1)[C@H]1OC(C)(C)O[C@@H]1[C@H]1COC(C)(C)O1 | > 100 µM (inactive) | > 100 µM (inactive) | > 100 µM (inactive) | > 100 µM (inactive) | > 100 µM (inactive) | > 100 µM (inactive) |  | > 100 µM (inactive) | > 100 µM (inactive) | > 100 µM (inactive) | > 100 µM (inactive) | > 100 µM (inactive) | > 100 µM (inactive) | > 100 µM (inactive) | > 100 µM (inactive) | > 100 µM (inactive) | > 10 µM (inactive) | > 100 µM (inactive) | > 100 µM (inactive) | > 100 µM (inactive) |
| Cc1ccc2c(c1)C(=O)c1ccc(C)nc1C2=O | 27.9 µM (inactive) | 31.8 µM (inactive) | 21.9 µM (inactive) | 31.8 µM (inactive) | 31.3 µM (inactive) | 31.9 µM (inactive) | 31.8 µM (inactive) |  | 19.1 µM (inactive) | 40.7 µM (inactive) | 21.9 µM (inactive) | 27.7 µM (inactive) | > 100 µM (inactive) | > 100 µM (inactive) | 8.71 µM (inactive) | > 100 µM (inactive) | 62.7 µM (inactive) | 85.9 µM (inactive) | 31.8 µM (inactive) | 48.4 µM (inactive) |
| Cc1c(F)c(NC(=O)CN(C)C)c2c(=O)cc(-c3ccc(NC(=O)CN(C)C)c(F)c3)oc2c1F | 13.4 µM (inactive) | 18.6 µM (inactive) | 19.1 µM (inactive) | 14.6 µM (inactive) | 0.678 µM (active) | 10.9 µM (inactive) | 16.3 µM (inactive) | 9.35 µM (inactive) | 12.9 µM (inactive) |  | 14.9 µM (inactive) | 18.9 µM (inactive) | 12.8 µM (inactive) | 26.9 µM (inactive) | 26.3 µM (inactive) | 22.8 µM (inactive) | 24.2 µM (inactive) | 15.9 µM (inactive) | 16 µM (inactive) | 13.6 µM (inactive) |
| Cc1ccnc2c1c(=O)c1ccccc1n2C | 50.7 µM (inactive) |  | 16.2 µM (inactive) | 29.5 µM (inactive) | 39.9 µM (inactive) | 39 µM (inactive) | 39 µM (inactive) | 13.1 µM (inactive) | 39.4 µM (inactive) | 30.8 µM (inactive) | 37.6 µM (inactive) | 35.6 µM (inactive) | 33.3 µM (inactive) | 25.3 µM (inactive) | 29.6 µM (inactive) | 54.5 µM (inactive) | 38.9 µM (inactive) | 53.6 µM (inactive) | 31.8 µM (inactive) | 50.7 µM (inactive) |
